Test results taken from BindingDB's records for doi:10.1021/jm9605849 (Monash University, 1997).

Biological target: 5-hydroxytryptamine receptor 1D (Bos taurus)
Experiment: Affinity pKi for 5-hydroxytryptamine 1D receptor was measured in calf caudate homogenate

Ki: 10 µM
SMILES: CCOC(=O)c1[nH]c2ccc(CCN3C(=O)CNC3=O)cc2c1CCN(C)C
